Measurements from US20260076952A1, “Agent for Treatment of Neutropenia” (Eberhard Karls Universität Tübingen Medizinische Fakultät, priority 2023, published 2026).
Entries after “also recorded” stand apart in the source; their conditions may differ.

How the values were obtained:
[1] = test system: primary bone marrow CD34+ HSPCs of ELANE-CN, HAX1-CN, JAGN1-CN and SRP54-CN patients; assay: Granulocytic liquid culture differentiation (LCD) of CN patient CD34+ HSPCs; format: cell-based, human; details: all CN patients
Procedure: (§1) CD34+ cells were seeded in a 24-well plate at a density of 2×10^5 cells/ml. […] Medium was exchanged every second day. On day 7, cells were plated in RPMI 1640 GlutaMAX supplemented with 10% FBS, 1% penicillin/streptomycin and 10 ng/ml G-CSF. On day 14, cells were analyzed by flow cytometry using following mouse anti-human antibodies: CD34 (BD, #348811), CD33 (BioLegend, #303416), CD45 (BioLegend, #304036), CD11b (BD, #557754), CD15 (BD, #555402), CD66b (BioLegend, #305114), CD16 (BD, #561248).

[2] = test system: in vitro generated neutrophils; assay: Annexin V apoptosis assay on in vitro generated neutrophils; format: cell-based, human; details: day 13 of LCD, four healthy donors
[3] = test system: primary bone marrow CD34+ HSPCs of healthy donors; assay: CFU assay of primary bone marrow CD34+ HSPCs of healthy donors; format: cell-based, human; details: 40 nM, compared to DMSO control
Description: FIG. 3A. […] Data represent means±SD from two independent experiments. **P<0.01.

[4] = prior-art clinical trials, used to inhibit CDKs and induce apoptosis in leukemia cells (Gerson et al. 2018); cited from earlier work
[5] = test system: in vitro generated neutrophils; assay: Phagocytosis assay of in vitro generated neutrophils; format: cell-based, human; details: differentiated in the presence of 40 nM flavopiridol
[6] = test system: primary bone marrow CD34+ HSPCs of healthy donors; assay: Granulocytic liquid culture differentiation (LCD) of healthy donor CD34+ HSPCs; format: cell-based, human; details: for neutrophil count, morphological examination of cytospin preparations: day 14
Procedure: as §1

ELANE-CN iPSCs = assay: Colony-forming unit (CFU) assay of CD34+ cells from EB-based CN-iPSC culture; format: cell-based, human
Procedure: Colony-forming unit (CFU) assay of CD34^+ cells harvested from EB-based CN-iPSC culture on day 14 of differentiation treated with eleven short listed small molecules.
EB-Based Hematopoietic Differentiation of iPSCs iPSCs were cultured on SNL feeder cells for 24 hours and then dissociated using PBS/EDTA (0.02%) for 5 min. EB generation was performed by centrifugation of 2×10^4 cells per EB in 96-well plates using APEL serum-free differentiation medium (Stemcell Technologies) supplemented with bFGF (20 ng/μl) and ROCK Inhibitor (R&D). On day one, BMP4 (40 ng/μl) was added to the culture medium to induce mesodermal differentiation. On day four, EBs were plated on Matrigel-coated 6-well plates (10 EBs/well) in APEL medium supplemented with VEGF (40 ng/μl), SCF (50 ng/μl) and IL-3 (50 ng/μl). For neutrophilic differentiation, the medium was changed 3 days later to fresh APEL medium supplemented with IL3 (50 ng/μl) and G-CSF (50 ng/μl). All cytokines were purchased from R&D Systems if nothing else is indicated. First hematopoietic suspension cells appeared between day 10 and 14. Suspension cells were harvested every 3-4 days and analyzed starting from day 14 to day 32.
The inventors then selected eleven small molecules that could potentially mimic the differentially expressed genes (DEGs) signature between CN and CN-corrected HSPCs and screened the effect of these small molecules on granulopoiesis using their isogenic CN iPSC model.

[7] = test system: CD34+ HSPCs of healthy donors; assay: Annexin V apoptosis assay on CD34+ HSPCs; format: cell-based, human; details: 40 nM, 48 hours
[8] = test system: in vitro generated neutrophils; assay: Reactive oxygen species (ROS) assay of in vitro generated neutrophils; format: cell-based, human; details: differentiated in the presence of 40 nM flavopiridol
HSPCs (CD41: gfp+ cells) = assay: Zebrafish in vivo model, number of HSPCs in tg(CD41:gfp) embryos; details: up to 10 µM, two days, compared to DMSO-treated controls
Procedure: (§2) Zebrafish transgenic lines and wild type were maintained according to standard protocols and handled in accordance with European Union animal protection directive 2010/63/EU. The maintenance was approved by the local government (Tierschutzgesetz § 11, Abs. 1, Nr. 1, husbandry permit 35/9185.46/Uni TÜ). All the experiments were performed in zebrafish embryos under 5 days post fertilization. In this study the inventors used two transgenic (tg) reporter lines, tg(mpo: gfp), where neutrophils express gfp and tg(CD41:gfp),where HSPCs express gfp, both described in the art.
(§3) To generate the jagn1b and hax1 mutants two different approaches were used, CRISPR/Cas9-mediated knock-out and morpholino-based knock down, respectively. On the one hand, to interfere with the function of jagn1b, jagn1b-targeting sgRNA and Cas9 protein RNPs (Alt-R S.p. Cas9 nuclease, v.3, IDT) were injected into the blastomere of 1-cell stage tg (mpo: gfp) embryos, as described in the art. On the other hand, to interfere with hax1 function 1 mM hax1-specific morpholino (GeneTool) was injected into 1-cell stage tg (mpo: gfp) embryos as previously described in the art. […] After two days of treatment, the number of mpo:gfp^+ or CD41:gfp^+ cells where quantified using a Nikon stereo-fluorescent SMZ18 microscope.

[9] = test system: primary bone marrow CD34+ HSPCs of ELANE-CN, HAX1-CN, JAGN1-CN and SRP54-CN patients; assay: CFU assay of primary bone marrow CD34+ HSPCs of CN patients; format: cell-based, human; details: two ELANE-CN, one HAX1-CN, one SRP54-CN patient, 40 nM
Description: FIG. 4A. […] Data represent means±SD from two independent experiments. *P<0.05, **P<0.01.

[10] = test system: in vitro generated neutrophils; assay: RealTime-Glo MT cell viability assay on in vitro generated neutrophils; format: cell-based, human; details: day 13 of LCD, four healthy donors
[11] = test system: human primary neutrophils of healthy donor; assay: RealTime-Glo MT Cell Viability Assay on human primary neutrophils; format: cell-based; details: 40 nM, compared with 0.1% DMSO
Description: The assay measures the reducing potential of viable cells in an ATP-independent manner and the nonlytic nature, high sensitivity and rapid response of the assay make it possible to track the cell viability over time in the same plate. Ficoll-Paque density gradient media (density: 1.077 g/mL) used for isolation of peripheral blood polymononuclear cell (PBPMNs) 1 of healthy donors.

[12] = test system: jagn1b knock-out zebrafish mutant embryos; assay: Zebrafish jagn1b knock-out neutropenia model, number of neutrophils; format: in vivo; details: two days treatment
Procedure: as §2, §3

[13] = test system: hax1-knock-down zebrafish mutant embryos (hax1 MO); assay: Zebrafish hax1 knock-down neutropenia model, number of neutrophils; format: in vivo; details: two days treatment
Procedure: as §2, §3

[14] = test system: in vitro generated neutrophils; assay: Chemotaxis assay of in vitro generated neutrophils; format: cell-based, human; details: differentiated in the presence of 40 nM flavopiridol
[15] = test system: CD34+ HSPCs of healthy donors; assay: RealTime-Glo MT Cell Viability Assay on CD34+ HSPCs; format: cell-based, human; details: 40 nM, 48 hours, versus DMSO-treated group
[16] = three independent ELANE-CN derived iPSCs, 40 nM flavopiridol

Question: Which “granulopoiesis: numbers of granulocytes and mature neutrophils by flow cytometry” value ([1]; 40 nM, 14 days) does the source give for CN1CC[C@H](c2c(O)cc(O)c3c(=O)cc(-c4ccccc4Cl)oc23)[C@H](O)C1 [flavopiridol] here?
Answer: significant restoration of granulopoiesis

Question: And the “granulopoiesis, morphological examination of cytospin preparations” value ([1]; day 14)?
Answer: significant restoration or restoration trend of granulopoiesis

Question: What about the early apoptotic cells [2] of the same compound?
Answer: about 3%

Question: And the late apoptotic cells [2]?
Answer: less than 2%

Question: And the live cells [2]?
Answer: More than 95%

Question: And the “levels of CFU-G” value ([3]; healthy donor one (HD1))?
Answer: significantly elevated levels of CFU-G

Question: And the “levels of CFU-G” value ([3]; healthy donor two (HD2))?
Answer: no significant change

Question: What about the “steady-state blood plasma levels” value [4] of the same compound?
Answer: about 350 nM

Question: What about the “neutrophil function, phagocytosis” value [5] of the same compound?
Answer: did not affect neutrophil function

Question: And the “granulopoiesis: numbers of granulocytes (CD45+CD15+CD11b+, CD45+CD15+CD66b+) and mature neutrophils (CD45+CD15+CD16+)” value ([6]; both healthy donors, 40 nM, 14 days, flow cytometry)?
Answer: significantly enhanced granulopoiesis

Question: And the “neutrophil count, morphological examination of cytospin preparations” value ([6]; healthy donor one (HD1))?
Answer: no change

Question: What about the “neutrophil count, morphological examination of cytospin preparations” value ([6]; healthy donor two (HD 2)) of the same compound?
Answer: a significant increase in neutrophil count

Question: What about the “granulopoiesis in CN iPSCs (screening)” value (ELANE-CN iPSCs; screen of eleven small molecules in isogenic CN iPSC model) of the same compound?
Answer: markedly restored the granulopoiesis

Question: What about the “CFU-macrophages (CFU-Ms)” value (ELANE-CN iPSCs; [16]) of the same compound?
Answer: significant decrease

Question: And the “colony-forming unit-granulocytes (CFU-G)” value (ELANE-CN iPSCs; [16])?
Answer: significant increase

Question: And the “apoptosis in CD34+ HSPCs” value [7]?
Answer: did not induce apoptosis

Question: What about the “neutrophil function, reactive oxygen species (ROS)” value [8] of the same compound?
Answer: did not affect neutrophil function

Question: And the “total number of HSPCs (CD41: gfp+ cells)” value (HSPCs (CD41: gfp+ cells))?
Answer: did not affect

Question: What about the “levels of CFU-G” value [9] of the same compound?
Answer: significantly elevated levels of CFU-G in all CN groups

Question: And the “levels of viability upon differentiation” value [10]?
Answer: improved levels of viability

Question: What about the viability of neutrophils ([11]; 3 hours) of the same compound?
Answer: No significant difference

Question: What about the viability of neutrophils ([11]; 24 hours) of the same compound?
Answer: No significant difference

Question: What about the viability of neutrophils ([11]; 48 hours) of the same compound?
Answer: No significant difference

Question: And the “number of neutrophils (mpo: gfp+ cells)” value [12]?
Answer: significantly restored the number of neutrophils (mpo: gfp^+ cells) to a similar level to wildtype controls; also recorded: restored the number of neutrophils (mpo: gfp^+ cells) to a similar level than the wildtype controls

Question: What about the “number of neutrophils (mpo: gfp+ cells)” value [13] of the same compound?
Answer: significantly restored the number of neutrophils (mpo: gfp^+ cells) to a similar level to wildtype controls; also recorded: increased to a similar level than the wildtype controls

Question: And the “neutrophil function, chemotaxis” value [14]?
Answer: did not affect neutrophil function

Question: What about the “viability of CD34+ HSPCs” value [15] of the same compound?
Answer: comparable to that of the DMSO-treated group
